The text below walks through data of ChEMBL document CHEMBL1128159, “Synthesis and evaluation of diacylhydrazines as inhibitors of the interleukin-1 converting enzyme (ICE)” (Bioorg Med Chem Lett, 1995).

Data set [1] is described as follows: Half life of compound in ICE assay buffer (1 mM dithiothreitol) at 25 degree C (89% intact after 120 h). The format is ADME. The note with it: ICE assay buffer with 1 mM dithiothreitol.
The target in another data set is T1, Caspase-1 (Homo sapiens) (UniProt P29466).
T1 sequence (whole entry): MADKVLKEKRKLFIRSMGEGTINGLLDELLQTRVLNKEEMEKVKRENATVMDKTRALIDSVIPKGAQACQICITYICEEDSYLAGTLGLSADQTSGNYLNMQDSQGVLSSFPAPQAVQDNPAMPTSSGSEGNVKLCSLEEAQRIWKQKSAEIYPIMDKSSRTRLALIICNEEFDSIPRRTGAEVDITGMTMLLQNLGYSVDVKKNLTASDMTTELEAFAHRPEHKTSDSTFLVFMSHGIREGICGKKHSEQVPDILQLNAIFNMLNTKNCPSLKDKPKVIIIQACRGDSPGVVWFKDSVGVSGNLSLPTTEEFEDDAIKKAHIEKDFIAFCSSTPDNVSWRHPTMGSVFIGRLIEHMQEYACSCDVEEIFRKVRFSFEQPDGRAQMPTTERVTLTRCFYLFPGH
Put plainly: Compound was tested for inhibition of IL-1 beta converting enzyme by measuring second order rate of inactivation.

Data set [2] can be described thus: Half life of compound in ICE assay buffer (1 mM glutathione) at […] degree C. The format is ADME. The note with it: ICE assay buffer with 1 mM glutathione.
The nature of data set [3]: Half life of compound in ICE assay buffer (1 mM dithiothreitol) at 25 degree C. The note with it: ICE assay buffer with 1 mM dithiothreitol. It is filed as ADME.
A short description of data set [4]: Half life of compound in ICE assay buffer (1 mM dithiothreitol) at 25 degree C (98% intact after 120 h). It is filed as ADME. The note with it: ICE assay buffer with 1 mM dithiothreitol.

Where a SMILES comes first, the peptide text is derived from it. Bounds are passed on as bounds.

`CC(C)[C@H](NC(=O)OCc1ccccc1)C(=O)N[C@@H](C)C(=O)NN(CC(=O)O)C(=O)CCl`: the half-life – broadly, the time needed for the level to fall by half in the phase considered – in data set [1] was over 120 h; in data set [2], 3.5 h. For the same molecule, on Caspase-1 (Homo sapiens), the second-order inactivation rate constant (kobs/[I]) worked out at 27300 M⁻¹ s⁻¹. As for `CC(C)[C@H](NC(=O)OCc1ccccc1)C(=O)N[C@@H](C)C(=O)NN(CC(=O)O)C(=O)COC(=O)c1c(Cl)cccc1Cl`, the second-order inactivation rate constant (kobs/[I]) at Caspase-1 (Homo sapiens) was determined as 700 M⁻¹ s⁻¹. As for `CC(C)[C@H](NC(=O)OCc1ccccc1)C(=O)N[C@@H](C)C(=O)N[C@@H](CC(=O)O)C(=O)CCl` (HELM PEPTIDE1{[O=C(OCc1ccccc1)[*:2]].V.A.D.[ClC[*:1]]}$$$$V2.0), the half-life in data set [3] was 0.25 h.

`CC(C)[C@H](NC(=O)OCc1ccccc1)C(=O)N[C@@H](C)C(=O)NC(CC(=O)O)C(=O)COC1=C(Cc2ccccc2)C(=O)OC1` (some centres undefined) came in with a second-order inactivation rate constant (kobs/[I]) at Caspase-1 (Homo sapiens) of 290000 M⁻¹ s⁻¹.

`CC(C)[C@H](NC(=O)OCc1ccccc1)C(=O)N[C@@H](C)C(=O)NN(CC(=O)O)C(=O)COC1=C(Cc2ccccc2)C(=O)OC1` registered a second-order inactivation rate constant (kobs/[I]) on Caspase-1 (Homo sapiens) of 120 M⁻¹ s⁻¹. On to `CC(C)[C@H](NC(=O)OCc1ccccc1)C(=O)N[C@@H](C)C(=O)N[C@@H](CC(=O)O)C(=O)COP(=O)(c1ccccc1)c1ccccc1`, for which, on Caspase-1 (Homo sapiens), the second-order inactivation rate constant (kobs/[I]) amounted to 118000 M⁻¹ s⁻¹. Further, in data set [2], the half-life was 0.96 h. On to `CC(C)[C@H](NC(=O)OCc1ccccc1)C(=O)N[C@@H](C)C(=O)NN(CC(=O)O)C(=O)CBr`, for which the second-order inactivation rate constant (kobs/[I]) at Caspase-1 (Homo sapiens) came to 1640 M⁻¹ s⁻¹.

For the molecule `CC(C)[C@H](NC(=O)OCc1ccccc1)C(=O)N[C@@H](C)C(=O)NN(CC(=O)O)C(=O)COc1cc(C(F)(F)F)nn1-c1ccccc1`, at Caspase-1 (Homo sapiens), the second-order inactivation rate constant (kobs/[I]) was determined as 470 M⁻¹ s⁻¹.

With `CC(C)[C@H](NC(=O)OCc1ccccc1)C(=O)N[C@@H](C)C(=O)NN(CC(=O)O)C(=O)COP(=O)(c1ccccc1)c1ccccc1`, the second-order inactivation rate constant (kobs/[I]) on Caspase-1 (Homo sapiens) worked out at 19400 M⁻¹ s⁻¹. Also, the half-life is 130 h in data set [2] and over 120 h in data set [4].
